System: Staphylococcus aureus ATCC33591
Experiment: Kirby-Bauer type test, coated suture sections on seeded agar plates
Format: cell-based
Description: In order to further evaluate the in-vitro potential for pH-lowering coatings, a study was carried out with Staphylococcus aureus ATCC33591. A series of coatings was prepared by dissolving 2.5, 5, 10 and 20 percent (w/w) of L(−)-lactide, respectively, in ethyl acetate. A second series of coatings was prepared by dissolving 2.5, 5, 10 and 20 percent (w/w) of L(−)-lactide in combination with 9 percent (w/w) polyoxaester, respectively, in ethyl acetate.
The polyoxaester coating copolymer used was a poly(ethylene 3,6,9-trioxaundecanedioate-seg-caprolactone-co-glycolide) resin comprised of approximately 17 weight percent polyoxaester prepolymer and a 83 weight percent polymerized mixture of approximately 91 mole percent ε-caprolactone and 9 mole percent glycolide. The polyoxaester is a polycondensation product of 3,6,9-trioxaundecanedioic acid and ethylene glycol made to have hydroxyl functionalities at both ends of each chain. The final resin is made through a ring opening polymerization of the ε-caprolactone and glycolide mixture using the polyoxaester as an α,ω-dihydroxy-macroinitiator. The inherent viscosity of the coating copolymer was 0.55 dL/g as determined in hexafluoroisopropanol (HFIP) at 25° C. at a concentration of 0.1 g/dL.
A third series of coatings was prepared by dissolving 2.5, 5, 10 and 20 percent (w/w) of glycolide, respectively, in ethyl acetate. A fourth series of coatings was prepared by dissolving 2.5, 5, 10 and 20 percent (w/w) of glycolide in combination with 9 percent (w/w) polyoxaester coating copolymer, respectively, in ethyl acetate. Approximately one-inch sections of commercial size 2/0 synthetic absorbable braided [10/90 poly(lactide-co-glycolide)] suture were dipped into the solutions and were dried overnight in a laminar flow hood, thereby providing a coated suture according to the present invention. In a Kirby-Bauer type test, plates were seeded with a 24-hour culture of Staph. aureus. The coated suture sections were placed on agar plates and the plates were incubated at 30-35° C. for 24 hours. […] For sutures coated from solutions comprising 2.5 percent and 5 percent lactide, respectively, zones of inhibition extending approximately 1 mm from the coated suture were observed. […] Utilizing a 20 percent lactide coating solution, the zone of inhibition was greater than 1 mm. All other coatings yielded results approximately the same as those obtained from a 10 percent lactide coating solution.
Referring to FIG. 3, a one inch-section of suture 30 coated with a solution of 20 percent by weight lactide in ethyl acetate was placed on a seeded agar plate and incubated as above. […] Referring to FIG. 2, when a section of untreated suture 20 is placed on a seeded agar plate and incubated as above, microorganisms 22 are present immediate and adjacent to the untreated suture and no zone of inhibition is noted around the suture.

[1] = 2/0 braided 10/90 poly(lactide-co-glycolide) suture coated from 2.5 percent solution in ethyl acetate, 30-35° C., 24 hours
[2] = 2/0 braided 10/90 poly(lactide-co-glycolide) suture coated from 5 percent solution in ethyl acetate, 30-35° C., 24 hours
[3] = 2/0 braided 10/90 poly(lactide-co-glycolide) suture coated from 10 percent solution in ethyl acetate, 30-35° C., 24 hours

| Compound | zones of inhibition extending from the coated suture [1] | zones of inhibition extending from the coated suture [2] | zones of inhibition extending from the coated suture [3] | zone of inhibition extending from the coated suture (2/0 braided 10/90 poly(lactide-co-glycolide) suture coated from 20 percent solution in ethyl acetate, 30-35° C., 24 hours) | zone of inhibition (FIG. 3, in words) (one inch-section of suture coated with 20 percent by weight solution in ethyl acetate) |
| --- | --- | --- | --- | --- | --- |
| C[C@@H]1OC(=O)[C@H](C)OC1=O [L(−)-lactide] | approximately 1 mm | approximately 1 mm | approximately 1 mm | greater than 1 mm | Zone of inhibition 34 clearly surrounds coated suture 30 |
| O=C1COC(=O)CO1 [glycolide] | less than 1 mm | less than 1 mm | approximately 1 mm |  |  |

Reference: patent US6514517B2, “Antimicrobial coatings for medical devices” (Ethicon, Inc., priority 2001, dated 2003)
